In PubChem BioAssay (NCI):
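96-well plates; 48 h exposure; 5 concentrations. Endpoints by linear interpolation between flanking doses. Not reached: highest tested concentration assigned. GI50 = concentration required for 50% inhibition of growth. TGI: concentration producing complete growth inhibition.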

Experiments:
Assay in all cases: NCI anticancer screen, dose series, 48 h
[1] = system: CAKI-1 renal
[2] = system: CCRF-CEM leukemia
[3] = system: HCC-2998 colon
[4] = system: MOLT-4 leukemia
[5] = system: OVCAR-5 ovarian
[6] = system: OVCAR-8 ovarian
[7] = system: SK-MEL-5 melanoma
[8] = system: SK-OV-3 ovarian
[9] = system: UACC-257 melanoma
[10] = system: DU-145 prostate

Row | Compound | TGI [1] | TGI [2] | TGI [3] | TGI [4] | TGI [5] | TGI [6] | TGI [7] | TGI [8] | TGI [9] | GI50 [10] | TGI [10] | GI50 [5] | GI50 [7] | GI50 [8] | GI50 [9] | GI50 [1] | GI50 [3] | GI50 [4] | GI50 [6] | GI50 [2]
1 | CN(C)[C@@H]1C(=O)C(C(=O)NCNCCCC(=O)O)=C(O)[C@@]2(O)C(=O)C3=C(O)c4c(O)cccc4[C@@](C)(O)[C@H]3C[C@@H]12 | > 100 µM | > 100 µM | > 100 µM | > 100 µM | > 100 µM | > 100 µM | > 100 µM | > 100 µM | > 100 µM | – | – | – | – | – | – | – | – | – | – | –
2 | Cc1cc(=O)[nH]c(NN2C(Cl)C(=O)C2c2cccc([N+](=O)[O-])c2)n1 (configuration not stated) | – | 10.3 µM | 36.8 µM | 44.9 µM | > 100 µM | > 100 µM | 33.5 µM | – | > 100 µM | – | – | – | – | – | – | – | – | – | – | –
3 | N=C(N)c1ccc(-c2ccc(-c3ccc(Cl)cn3)s2)cc1 | – | – | – | – | 3.04 µM | – | 3.19 µM | 3.49 µM | 3.62 µM | 1.78 µM | 3.34 µM | 1.58 µM | 1.77 µM | 1.83 µM | 1.8 µM | – | – | – | – | –
4 | CCN(CC)Cc1ccc2cccnc2c1O | > 100 µM | 13.3 µM | 59.7 µM | 10 µM | 45.5 µM | 7.01 µM | > 100 µM | 25.1 µM | > 100 µM | – | > 100 µM | – | – | – | – | – | – | – | – | –
5 | O=C1c2ccccc2C(=O)c2c(NCCNC(=O)C3CCCN3)ccc(NCCNC(=O)C3CCCN3)c21 (configuration not stated) | > 100 µM | > 100 µM | > 100 µM | 84.2 µM | > 100 µM | 94.3 µM | > 100 µM | > 100 µM | > 100 µM | – | > 100 µM | – | – | – | – | – | – | – | – | –
6 | CN(C)c1ccc2nc3c(C(=O)O)cc(=O)c(O)c-3oc2c1 | > 100 µM | 57.8 µM | – | 51.8 µM | > 100 µM | > 100 µM | 29.3 µM | > 100 µM | 32.3 µM | – | > 100 µM | – | – | – | – | – | – | – | – | –
7 | COc1ccc(-n2c3c(c4cc(O)ccc42)C(=O)c2ccccc2C3=O)cc1 | > 100 µM | – | – | > 100 µM | > 100 µM | 13.6 µM | > 100 µM | 2.73 µM | > 100 µM | – | > 100 µM | – | – | – | – | – | – | – | – | –
8 | O=C(CC1(O)C(=O)Nc2ccc(Br)cc21)c1ccc(C(=O)NCC2CCC3(CC2)OOC2(CCCCC2)OO3)cc1 (configuration not stated) | 31.2 µM | – | 37.6 µM | 5.87 µM | 63.8 µM | > 100 µM | 7.09 µM | 31.3 µM | 29 µM | 8.77 µM | 39.6 µM | 13.8 µM | 2.4 µM | 10.4 µM | 10.6 µM | 13.5 µM | 12.7 µM | 2.14 µM | 4.57 µM | –
9 | CN(C)CCNC(=O)c1cccc2nc3c4ccccc4c4ccccc4c3nc12 | 47.7 µM | 3.03 µM | 11.5 µM | 4.96 µM | 14.2 µM | 7.76 µM | 15.7 µM | 13.4 µM | 10.6 µM | – | 3.2 µM | – | – | – | – | – | – | – | – | –
10 | Cc1ccc(C)c(/C(=N\N=C(N)N)C2CC2)c1 | > 100 µM | – | 35.4 µM | > 100 µM | > 100 µM | > 100 µM | > 100 µM | > 100 µM | > 100 µM | – | > 100 µM | – | – | – | – | – | – | – | – | –
11 | C[n+]1cccc(/C=C/c2ccc3cccc(O)c3n2)c1 | > 100 µM | > 100 µM | > 100 µM | > 100 µM | > 100 µM | > 100 µM | > 100 µM | > 100 µM | > 100 µM | – | > 100 µM | – | – | – | – | – | – | – | – | –
12 | C[C@H]1CCC/C=C/[C@@H]2C[C@H](O)C[C@H]2[C@H](O)[C@@H](S(=O)CCN)CC(=O)O1 (some centres not stated) | – | – | 22.3 µM | – | – | 0.154 µM | 0.0295 µM | – | > 100 µM | 0.163 µM | 0.552 µM | 0.0479 µM | 0.015 µM | 0.0245 µM | < 0.0234 µM | 0.0979 µM | 0.252 µM | 0.0947 µM | < 0.0181 µM | 0.0729 µM
13 | COc1cnc2c(c1)C(=O)c1c-2n(CCCN2CCNCC2)c(=O)c2cc(Cl)ccc12 | 1.91 µM | – | – | – | 3.31 µM | – | – | 2.51 µM | 4.82 µM | 0.242 µM | 1.2 µM | 1.74 µM | – | 1.16 µM | 2.19 µM | 0.414 µM | – | – | – | –
14 | Oc1cc(O)cc(/C=C/c2ccc(O)c(O)c2)c1 | > 30.8 µM | 24.3 µM | 34.4 µM | > 46.5 µM | 20.7 µM | > 100 µM | > 49.1 µM | 47.7 µM | > 100 µM | – | – | – | – | – | – | – | – | – | – | –
15 | COc1cc2ccc1-c1cc(ccc1O)CC1c3cc4c(cc3CCN1C)Oc1c(OC)cc3c(c1O4)C(C2)N(C)CC3 (configuration not stated) | 5.79 µM | 5.18 µM | 3.06 µM | 4.22 µM | 8.86 µM | – | 3.52 µM | – | 3.23 µM | – | – | – | – | – | – | – | – | – | – | –
16 | CCOC(=O)c1c2c(c(O)c3ccccc3c(O)n(-c3ccc(C)cc3)c1C)C(=O)C=CC2=O | 43.3 µM | 78.9 µM | 36.9 µM | 29.4 µM | > 100 µM | 41.3 µM | 31.9 µM | 89.7 µM | 29.3 µM | – | 91 µM | – | – | – | – | – | – | – | – | –
17 | CC[C@H](Nc1nc(N)nc(N)c1Cl)c1nc2cccc(NCc3ccc(C(=O)NO)cc3)c2c(=O)n1-c1ccccc1 | 5 µM | > 100 µM | 3.22 µM | 16.6 µM | 3.36 µM | 5.05 µM | 3.22 µM | – | 4.92 µM | 2.91 µM | 10.5 µM | 1.61 µM | 1.75 µM | – | 1.94 µM | 2 µM | 1.62 µM | 1.47 µM | 1.69 µM | 1.35 µM
18 | COc1ccc(CNc2nc(NCc3ccc(OC)cc3)nc(NC(C)C)n2)cc1 | 66.4 µM | – | 64.8 µM | > 100 µM | 81.9 µM | 33.6 µM | 16.5 µM | > 100 µM | 39.8 µM | – | 66 µM | – | – | – | – | – | – | – | – | –
19 | Cc1c2ccnc(-c3ccccc3)c2cc2c1[nH]c1ccccc12 | 6.96 µM | 10.6 µM | 13.2 µM | 6.96 µM | 13.8 µM | 7 µM | 2.78 µM | 9.39 µM | 6.26 µM | – | – | – | – | – | – | – | – | – | – | –
20 | COc1cc2c(cc1OC)C(Cl)C(c1ccc(Cl)cc1)=C2Cl (configuration not stated) | 40.3 µM | 30.6 µM | – | 42.5 µM | – | 60.5 µM | 28.3 µM | 57.5 µM | – | – | – | – | – | – | – | – | – | – | – | –
21 | c1ccc2c[n+](CCCCCCCCCC[n+]3ccc4ccccc4c3)ccc2c1 | > 10 µM | > 10 µM | > 10 µM | – | > 10 µM | > 10 µM | > 10 µM | > 10 µM | > 10 µM | – | > 10 µM | – | – | – | – | – | – | – | – | –
